Consider 24 compounds from patent US5710130A, “Antithrombotic agents” (Eli Lilly and Company, priority 1995, dated 1998).

Where a name gives a salt, the structure may show the parent alone.

What all share (assay type): biochemical
The test system of experiment [1] is human plasma. Briefly: Human plasma anticoagulation, thrombin time (TT). The conditions noted are these: concentration required to double thrombin time, linear extrapolation. As for the experimental part: (§1) Dog plasma and rat plasma is obtained from conscious mixed-breed hounds (either sex, Hazelton-LRE, Kalamazoo, Mich., U.S.A.) or from anesthetized male Sprague-Dawley rats (Harlan Sprague-Dawley, Inc., Indianapolis, Ind., U.S.A.) by venipuncture into 3.8 percent citrate. Fibrinogen is prepared from in-date ACD human blood as the fraction I-2 according to previous procedures and specifications. […] Human fibrinogen is also purchased as 98 percent pure/plasmin free from American Diagnostica, Greenwich, Conn. Coagulation reagents ACTIN, Thromboplastin, and Human plasma are from Baxter Healthcare Corp., Dade Division, Miami, Fla. Bovine thrombin from Parke-Davis ([…], Mich.) is used for coagulation assays in plasma.
(§2) Coagulation assay procedures are as previously described. […] A CoAScreener coagulation instrument (American LABor, Inc.) is used for all coagulation assay measurements. The prothrombin time (PT) is measured by adding 0.05 mL saline and 0.05 mL Thromboplastin-C reagent to 0.05 mL test plasma. The activated partial thromboplastin time (APTT) is measured by incubation of 0.05 mL test plasma with 0.05 mL Actin reagent for 120 seconds followed by 0.05 mL CaCl2 (0.02M). The thrombin time (TT) is measured by adding 0.05 mL saline and 0.05 mL thrombin (10 NIH units/mL) to 0.05 mL test plasma. The compounds of Formula I are added to human or animal plasma over a wide range of concentrations to determine prolongation effects on the APTT, PT, and TT assays. Linear extrapolations are performed to estimate the concentrations required to double the clotting time for each assay.

The next experiment addresses Human Thrombin (Homo sapiens, UniProt P00734). Briefly: Inhibition of thrombin amidase activity (Kass), chromogenic substrate. Particulars: mean Kass over a range of concentrations; substrate N-benzoyl-Phe-Val-Arg-p-nitroanilide.
Experiment [2] concerns human plasma. Description: Human plasma anticoagulation, prothrombin time (PT). The conditions noted are these: concentration required to double PT, linear extrapolation. As for the experimental part: as §1, §2
Experiment [3] deals with human plasma. Briefly: Human plasma anticoagulation, activated partial thromboplastin time (APTT). The conditions noted are these: concentration required to double APTT, linear extrapolation. As for the experimental part: as §1, §2

As for `Cl.O=C(O)CN[C@H](CC1CCCCC1)C(=O)N1CCC[C@H]1C(=O)NCC1=CCNCC1` [Example 58, HO2 CCH2 -D-Cha-Pro-4-NHCH2 -3,4-dehydro-piperidine.HCl], the “Human Plasma Anticoagulation 2x Clotting time TT” value in the experiment with human plasma [1] was 710 ng/mL. Moreover, on Human Thrombin, the “Kass Human Thrombin” value is 0.60 × 10^6 (L/mole).

Turning to `Cl.NC[C@H]1CC[C@H](CNC(=O)[C@@H]2CCCN2C(=O)[C@H](N)Cc2ccccc2)CC1` (relative stereo) [Example 12, D-Phe-Pro-NHCH2 -trans-4-(aminomethyl)cyclohexane.HCl], in the experiment on human plasma [1], the “Human Plasma Anticoagulation 2x Clotting time TT” value is on record as 1,700 ng/mL. For the same compound, at Human Thrombin, the “Kass Human Thrombin” value is on record as 0.44 × 10^6 (L/mole).

With `CS(=O)(=O)CC(=O)N[C@H](CC1CCCCC1)C(=O)N1CCC[C@H]1C(=O)NCc1ccc(C(=N)N)cc1` [Example 92, (N-methylsulfonylacetyl)-L-cyclohexylalanyl-N-[[4-(aminoiminomethyl)phenyl]methyl]-L-prolinamide hydrochloride], the “Human Plasma Anticoagulation 2x Clotting time TT” value in the experiment on human plasma [1] is given as 8.9 ng/mL. Moreover, the “Human Plasma Anticoagulation 2x Clotting time PT” value in the experiment on human plasma [2] is given as 340 ng/mL. Also, the “Human Plasma Anticoagulation 2x Clotting time APTT” value in the experiment with human plasma [3] is given as 210 ng/mL.

For the compound `N=C(N)c1ccc(CNC(=O)[C@@H]2C[C@@H]3CCCC[C@@H]3N2C(=O)[C@H]2C[C@H]3CCCC[C@H]3CN2)cc1` (relative stereo) [Example 43, D-3-Piq-cis-Ohi-p-NHCH2 C6 H4 C(NH)NH2.2HCl], in the experiment with human plasma [1], the “Human Plasma Anticoagulation 2x Clotting time TT” value was 280 ng/mL. The “Human Plasma Anticoagulation 2x Clotting time PT” value in the experiment on human plasma [2] was 930 ng/mL. The “Human Plasma Anticoagulation 2x Clotting time APTT” value in the experiment on human plasma [3] was 1,100 ng/mL.

In the case of `N=C(N)c1ccc(CNC(=O)[C@@H]2CCCN2C(=O)[C@@H](CC2CCCCC2)NCCC(=O)O)cc1` [Example 52, N-(2-carboxyethyl)-D-cyclohexylalanyl-N-[[4-(aminoiminomethyl)phenyl]methyl]-L-prolinamide hydrochloride], the “Human Plasma Anticoagulation 2x Clotting time TT” value in the experiment on human plasma [1] is on record as 6 ng/mL. For the same compound, the “Human Plasma Anticoagulation 2x Clotting time PT” value in the experiment with human plasma [2] is reported as 170 ng/mL. Besides, the “Human Plasma Anticoagulation 2x Clotting time APTT” value in the experiment with human plasma [3] is recorded as 80 ng/mL.

In the case of `CCS(=O)(=O)N[C@H](CC1CCCCC1)C(=O)N1CCC[C@H]1C(=O)NCc1ccc(CN)cc1` [Example 81, EtSO2 -D-Cha-Pro-4-NHCH2 C6 H4 CH2 NH2.HCl], the “Human Plasma Anticoagulation 2x Clotting time TT” value in the experiment with human plasma [1] was 110 ng/mL. Moreover, in the experiment with human plasma [2], the “Human Plasma Anticoagulation 2x Clotting time PT” value was 2,700 ng/mL. The “Human Plasma Anticoagulation 2x Clotting time APTT” value in the experiment with human plasma [3] was 1,500 ng/mL.

`N=C(N)c1ccc(CNC(=O)[C@@H]2CCCN2C(=O)[C@@H](CC2CCCCC2)NCC(=O)O)cc1` [Example 48, N-(carboxymethyl)-D-cyclohexylalanyl-N-[[4-(aminoiminomethyl)phenyl]methyl]-L-prolinamide]: the “Human Plasma Anticoagulation 2x Clotting time TT” value in the experiment on human plasma [1] is listed as 2 ng/mL. For the same compound, the “Human Plasma Anticoagulation 2x Clotting time PT” value in the experiment on human plasma [2] was 59 ng/mL. In addition, the “Human Plasma Anticoagulation 2x Clotting time APTT” value with human plasma [3] is recorded as 33 ng/mL.

Take `N=C(N)c1ccc(CNC(=O)[C@@H]2CCCN2C(=O)[C@H](N)CC2CCCCC2)cc1` [Example 51, D-cyclohexylalanyl-N-[[4-(aminoiminomethyl)phenyl]methyl]-L-prolinamide di-hydrochloride]: the “Human Plasma Anticoagulation 2x Clotting time TT” value in the experiment on human plasma [1] is 2 ng/mL. For the same compound, the “Human Plasma Anticoagulation 2x Clotting time PT” value with human plasma [2] is recorded as 110 ng/mL. Moreover, the “Human Plasma Anticoagulation 2x Clotting time APTT” value in the experiment with human plasma [3] was 48 ng/mL.

`N=C(N)c1ccc(CNC(=O)[C@@H]2CCCN2C(=O)[C@@H](CCC2CCCCC2)NCC(=O)O)cc1` [Example 88, hydrochloride]: the “Human Plasma Anticoagulation 2x Clotting time TT” value in the experiment with human plasma [1] is 4 ng/mL. Also, the “Human Plasma Anticoagulation 2x Clotting time PT” value with human plasma [2] is 200 ng/mL. In addition, the “Human Plasma Anticoagulation 2x Clotting time APTT” value in the experiment on human plasma [3] is 100 ng/mL.

Take `CCC(CC)C(=O)N[C@@H](CCS(C)(=O)=O)C(=O)N1CCC[C@H]1C(=O)NCc1ccc(C(=N)N)cc1` [Example 91, (C2 H5)2 CHCO-Met(O2)-Pro-p-NHCH2 C6 H4 C(NH)NH2.HCl]: in the experiment on human plasma [1], the “Human Plasma Anticoagulation 2x Clotting time TT” value is 63 ng/mL. The “Human Plasma Anticoagulation 2x Clotting time PT” value in the experiment with human plasma [2] is recorded as 3,500 ng/mL. Besides, the “Human Plasma Anticoagulation 2x Clotting time APTT” value with human plasma [3] was 3,000 ng/mL.

Turning to `Cl.N=C(N)c1ccc(CCCNC(=O)C2CCCN2C(=O)C2NCCC3CCCCC32)cc1` (stereo not drawn) [Example 32, 1-Piq-Pro-p-NHCH2 CH2 CH2 -C6 H4 C(=NH)NH2.2HCl], the “Human Plasma Anticoagulation 2x Clotting time TT” value in the experiment with human plasma [1] is 3,100 ng/mL. For the same compound, on Human Thrombin, the “Kass Human Thrombin” value is recorded as 0.13 × 10^6 (L/mole).

For `Cl.Nc1ccc(CCNC(=O)[C@@H]2CCCN2C(=O)[C@@H](CC2CCCCC2)NCC(=O)O)cn1` [Example 75, HO2 CCH2 -D-Cha-Pro-5-NHCH2 CH2 -2-aminopyridine.HCl], the “Kass Human Thrombin” value at Human Thrombin was 0.45 × 10^6 (L/mole).

As to `Cl.O=C(O)CN[C@H](CC1CCCCC1)C(=O)N1CCC[C@H]1C(=O)NCCCC1=CCNCC1` [Example 60, HO2 CCH2 -D-Cha-Pro-4-NHCH2 CH2 CH2 -3,4-dehydro-piperidine.HCl], the “Human Plasma Anticoagulation 2x Clotting time TT” value with human plasma [1] is given as 3,200 ng/mL. Besides, at Human Thrombin, the “Kass Human Thrombin” value was 0.24 × 10^6 (L/mole).

As to `Cl.Nc1ccc(CCNC(=O)[C@@H]2CCCN2C(=O)[C@H](N)Cc2ccccc2)cc1` [Example 14, D-Phe-Pro-p-NHCH2 CH2 C6 H4 NH2.HCl], in the experiment with human plasma [1], the “Human Plasma Anticoagulation 2x Clotting time TT” value is given as 21,000 ng/mL. Moreover, the “Kass Human Thrombin” value on Human Thrombin is 0.021 × 10^6 (L/mole).

For the compound `Cl.NC(N)=NC/C=C/CNC(=O)[C@@H]1CCCN1C(=O)[C@H](N)Cc1ccccc1` (relative stereo) [Example 8, D-Phe-Pro-NHCH2 -trans-CH=CHCH2 NHC(NH)NH2.HCl], the “Human Plasma Anticoagulation 2x Clotting time TT” value in the experiment on human plasma [1] is given as 130 ng/mL. Besides, the “Kass Human Thrombin” value at Human Thrombin is listed as 5.3 × 10^6 (L/mole).

Regarding `CCS(=O)(=O)N[C@H](Cc1ccccc1)C(=O)N1CCC[C@H]1C(=O)NCCc1ccc(NC(=N)N)cc1` [Example 35, EtSO2 -D-Phe-Pro-p-NHCH2 CH2 C6 H4 NHC(NH)NH2.HCl], the “Human Plasma Anticoagulation 2x Clotting time TT” value with human plasma [1] was 4,500 ng/mL. Also, the “Human Plasma Anticoagulation 2x Clotting time PT” value in the experiment on human plasma [2] is reported as 78,400 ng/mL. Further, the “Human Plasma Anticoagulation 2x Clotting time APTT” value in the experiment with human plasma [3] was 50,400 ng/mL.

For `CCS(=O)(=O)N[C@H](Cc1ccccc1)C(=O)N1CCC[C@H]1C(=O)NCCc1cccc(C(=N)N)c1.Cl` [Example 27, EtSO2 -D-Phe-Pro-m-NHCH2 CH2 -C6 H4 C(=NH)NH2.HCl], the “Human Plasma Anticoagulation 2x Clotting time PT” value in the experiment with human plasma [2] is given as 27,000 ng/mL. Moreover, the “Kass Human Thrombin” value at Human Thrombin is 0.29 × 10^6 (L/mole).

On to “(S-cis)-N-[[4-(amino iminomethyl)phenyl]methyl]-1-[N-(ethylsulfonyl)-D-phenylglycyl]-1H-indole- 2-carboxamide hydrochloride [Example 44]”, for which, in the experiment on human plasma [1], the “Human Plasma Anticoagulation 2x Clotting time TT” value is 4 ng/mL. Also, the “Human Plasma Anticoagulation 2x Clotting time PT” value with human plasma [2] is reported as 170 ng/mL. For the same compound, in the experiment on human plasma [3], the “Human Plasma Anticoagulation 2x Clotting time APTT” value was 100 ng/mL.

As for `N=C(N)N1CC=C(CNC(=O)[C@@H]2CCCN2C(=O)[C@@H](CC2CCCCC2)NCC(=O)O)CC1` [Example 70, N-(carboxymethyl)-D-cyclohexylalanyl-N-[[1-(aminoiminomethyl)-1,2,3,6-tetrahydropyridin-4-yl]methyl]-L-prolinamide hydrochloride], the “Human Plasma Anticoagulation 2x Clotting time TT” value in the experiment on human plasma [1] is 2 ng/mL. Further, in the experiment on human plasma [2], the “Human Plasma Anticoagulation 2x Clotting time PT” value is 180 ng/mL. In the experiment on human plasma [3], the “Human Plasma Anticoagulation 2x Clotting time APTT” value is on record as 160 ng/mL.

For `CCS(=O)(=O)N[C@H](CC1CCCCC1)C(=O)N1CCC[C@H]1C(=O)NCCCCN=C(N)N.Cl` [Example 2, EtSO2 -D-Cha-Pro-Agm.HCl], the “Human Plasma Anticoagulation 2x Clotting time TT” value in the experiment with human plasma [1] is 170 ng/mL. At Human Thrombin, the “Kass Human Thrombin” value is given as 4.4 × 10^6 (L/mole).

`CCOC(=O)N[C@H](Cc1ccccc1)C(=O)N1CCC[C@H]1C(=O)NCCCCN=C(N)N.Cl` [Example 3, EtOCO-D-Phe-Pro-Agm.HCl]: the “Human Plasma Anticoagulation 2x Clotting time TT” value in the experiment on human plasma [1] is listed as 590 ng/mL. Moreover, the “Kass Human Thrombin” value on Human Thrombin is 2.1 × 10^6 (L/mole).

On to `N=C(N)N1CCC(CNC(=O)[C@@H]2CCCN2C(=O)[C@@H](CC2CCCCC2)NCC(=O)O)CC1` [Example 56, N-(carboxymethyl)-D-cyclohexylalanyl-N-[[1-(aminoiminomethyl)-hexahydropyridin-4-yl-]methyl]-L-prodimamide hydrochloride], for which the “Human Plasma Anticoagulation 2x Clotting time TT” value in the experiment on human plasma [1] was 5 ng/mL. Also, the “Human Plasma Anticoagulation 2x Clotting time PT” value in the experiment with human plasma [2] is given as 200 ng/mL. For the same compound, the “Human Plasma Anticoagulation 2x Clotting time APTT” value with human plasma [3] is listed as 160 ng/mL.

For `CCS(=O)(=O)N[C@H](Cc1ccccc1)C(=O)N1CCC[C@H]1C(=O)NCc1ccc(NC(=N)N)cc1` [Example 34, EtSO2 -D-Phe-Pro-p-NHCH2 C6 H4 NHC(NH)NH2.HCl], the “Human Plasma Anticoagulation 2x Clotting time TT” value with human plasma [1] was 530 ng/mL. Besides, the “Human Plasma Anticoagulation 2x Clotting time PT” value with human plasma [2] is 5,500 ng/mL. In addition, the “Human Plasma Anticoagulation 2x Clotting time APTT” value with human plasma [3] is 4,900 ng/mL.

`Cl.NCc1cccc(CNC(=O)[C@@H]2CCCN2C(=O)[C@H](N)Cc2ccccc2)c1` [Example 11, D-Phe-Pro-m-NHCH2 C6 H4 CH2 NH2.HCl]: in the experiment with human plasma [1], the “Human Plasma Anticoagulation 2x Clotting time TT” value is given as 8,800 ng/mL. For the same compound, the “Kass Human Thrombin” value at Human Thrombin is reported as 0.064 × 10^6 (L/mole).
